Reference: patent publication US11358931B2, “Selective androgen receptor modulators (SARMs) and uses thereof” (priority 2007, dated 2022)
pEC50, pIC50: −log10 of the molar value. Like-named read-outs stand apart in the source and are kept apart here.

Key:
[1] = system: TNFα-IL-1β-induced IL-6 promoter activity; assay: IL-6 promoter repression assay (Saos-2 human osteoblast cells transfected with human AR); type: cell-based; details: for pIC50: Homo sapiens, read-out: average IC50, suppression of TNFα-IL-1β-induced IL-6 promoter activity
From the text: An exemplary cotransfection assay for measuring AR-mediated effects on bone measures the modulation of IL-6 promoter activity. IL-6 is an important bone resorption factor (Jilka et al, Science 257: 88-91 (1992); Bellido et al., J Clin Invest 95: 2886-2895 (1995)). Overexpression of IL-6 can cause severe bone loss in vivo. […] It has been reported that androgens regulate IL-6 mRNA by suppressing NFKB binding to its response element (Keller et al., J Biol Chem 271: 26267-26275 (1996)). Thus, the AR-mediated modulation of IL-6 promoter activity provides an excellent marker for studying androgen action in bone. The assay is a cotransfection assay that measures the ability of compound to repress gene expression via the human androgen receptor from the IL-6 promoter using a luciferase reporter assay in human osteoblast cells.
A human osteoblast cell line (Saos-2, available from American Type Cell Culture (ATCC, Rockville, Md.)) can be used in the luciferase reporter assay. An IL-6-LUC reporter plasmid can be constructed by inserting the IL-6 promoter sequence into a luciferase reporter vector (e.g., by cloning the human IL-6 promoter region from −232 to +17 bp from human liver genomic DNA (Clontech, Palo Alti, Calif.) and inserting the sequence into a pGL2-enhancer reporter plasmid (Promega, Madison, Wis.)). The Saos-2 cell line can be transiently transfected with a human AR expression plasmid and a luciferase reporter plasmid containing the IL-6 promoter upstream of the luciferase cDNA. The compounds to be tested are added to the cells after transfection and after 24 hours of incubation, the cells are lysed with a detergent-containing buffer and assayed for luciferase activity. The EC50 is determined from the concentration response curve for the compound, and the inhibitory effect on TNFα/IL-1β induction (% inhibition) can be calculated according to the equation: […]
IL-6 is an important bone resorption factor. Over-expression of IL-6 can cause severe bone loss in vivo. Reducing IL-6 production by bone cells would be therapeutically beneficial by reducing bone resorption. Compound 102 and the androgen receptor modulators LG0893410 and LG0893411 were tested to determine their ability to suppress TNFα-IL-1β-induced IL-6 promoter activity in Saos-2 human osteoblast cells using a cotransfection assay. A human osteoblast cell line (Saos-2) was transiently transfected with a human AR expression plasmid and a luciferase reporter plasmid containing the IL-6 promoter upstream of the luciferase cDNA. Saos-2 cells were seeded at 6000 cells/well in 96-well plates. The same day, a non-liposomal formulation, FuGENE 6 reagent (Roche, Indianapolis, Ind.) was used for transfection of the cells. To each well was added […] of the IL-6-LUC reporter plasmid and 0.7 μg of pCMV-hAR. Twenty-four hours after transfection, different concentrations of the solvated compound (10^−11 to 10^−6 M) in DMEM (Dulbecco's Minimal Essential Media) were added in triplicate to the cells and the cells were incubated for 24 hours. The expression of luciferase was stimulated by the cytokines Tumor Necrosis Factor α (TNFα, 10 ng/mL) and Interleukin-1 beta (IL-1β, 1 ng/mL). The medium was aspirated and the cells were lysed with a detergent-containing buffer. After addition of Luciferase Assay Buffer to each well, the cells were assayed for luciferase activity using a luminometer to determine the level of transcriptional activation.

[2] = target: endogenous human androgen receptor (hAR) (Homo sapiens, UniProt P10275); assay: Activation of hAR-responsive luciferase reporter in MDA-MB-453 cells; type: cell-based
endogenous human androgen receptor (hAR), sequence (P10275 whole entry): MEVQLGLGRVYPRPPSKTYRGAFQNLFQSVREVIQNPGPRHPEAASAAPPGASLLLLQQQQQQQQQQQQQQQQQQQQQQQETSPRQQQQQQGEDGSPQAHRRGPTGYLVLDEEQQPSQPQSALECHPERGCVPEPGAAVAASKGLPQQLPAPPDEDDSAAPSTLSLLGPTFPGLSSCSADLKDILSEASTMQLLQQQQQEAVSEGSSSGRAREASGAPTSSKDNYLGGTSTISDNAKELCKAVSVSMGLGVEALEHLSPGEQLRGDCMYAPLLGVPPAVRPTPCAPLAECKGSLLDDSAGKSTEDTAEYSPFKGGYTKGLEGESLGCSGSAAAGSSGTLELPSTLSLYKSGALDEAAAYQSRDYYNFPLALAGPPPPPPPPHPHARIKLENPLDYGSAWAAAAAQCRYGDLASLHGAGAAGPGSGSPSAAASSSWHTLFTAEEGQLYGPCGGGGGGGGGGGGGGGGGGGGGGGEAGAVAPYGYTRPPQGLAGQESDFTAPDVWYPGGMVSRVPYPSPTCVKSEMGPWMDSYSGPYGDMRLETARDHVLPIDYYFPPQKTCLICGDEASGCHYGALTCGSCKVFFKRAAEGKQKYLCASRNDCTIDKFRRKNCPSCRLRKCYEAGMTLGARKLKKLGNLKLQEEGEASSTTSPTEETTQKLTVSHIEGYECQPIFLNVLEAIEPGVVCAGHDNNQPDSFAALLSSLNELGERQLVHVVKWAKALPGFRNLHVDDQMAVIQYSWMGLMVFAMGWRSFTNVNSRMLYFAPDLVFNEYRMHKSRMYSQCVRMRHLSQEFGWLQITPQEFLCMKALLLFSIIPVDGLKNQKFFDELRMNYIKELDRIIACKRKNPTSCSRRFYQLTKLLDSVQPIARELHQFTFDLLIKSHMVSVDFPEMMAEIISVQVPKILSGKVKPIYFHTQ
Experimental: A functional assay was conducted to determine the ability of test substances to modulate gene expression via endogenous human androgen receptor (hAR) in a human cell line. A luciferase reporter assay was utilized to establish the ability of test compounds to activate hAR-regulated gene expression in a human cell line containing endogenously expressed hAR (MDAMB-453 cells) transfected with an androgen-responsive luciferase reporter plasmid containing the cDNA for firefly luciferase. MDA-MB-453 cells were transfected with a plasmid containing the cDNA for firefly luciferase (LUC) under the control of a conditional promoter containing hormone response elements recognized by AR (MMTV-LUC) and a P-galactosidase expression plasmid (pRS-(3-Gal) for normalization of transfection efficiency. The reporter plasmid MMTVLUC contains the mouse Mammary Tumor Virus (MMTV) Long Terminal Repeat (LTR) conditional promoter containing hormone response elements recognized by hAR. The luciferase response was calculated as: Luciferase response/β-gal rate where
Luciferase response=Relative Luciferase Units (RLU) and
β-gal rate=β-gal 0.D.415/β-Gal incubation time in minutes.
The mean of the normalized response at each concentration of compound was calculated. The effective concentration that produced 50% of the maximum response (EC50) was determined for each compound by interpolation between two concentrations spanning the midpoint of the concentration-response curve. Agonist efficacy for test compounds was calculated as a percent of normalized response relative to the maximum normalized response by the reference agonist DHT.

[3] = MDA-MB-453 cells, MMTV-LUC; read-out: EC50, activating hAR-responsive luciferase reporter

Row | SMILES | pIC50 ([1]; Saos-2 cells) | efficacy, % of DHT ([1]; Saos-2 cells) [%] | more potent than LG0893410 and LG0893411 in suppressing IL-6 promoter activity ([1]; ratio of IC50) | more potent than LG0893410 and LG0893411 in activating hAR-responsive luciferase reporter ([2]; ratio of EC50) [times] | pEC50 ([2]; read-out: EC50, activating hAR-responsive luciferase reporter; MDA-MB-453 cells, MMTV-LUC) | pEC50 [2, 3]
1 | N#Cc1ccc(N2CCC[C@@H]2[C@@H](O)C(F)(F)F)cc1C(F)(F)F [Compound 102, R,R-4-(2-(1-Hydroxyl-2,2,2-trifluoroethyl)-pyrrolidinyl)-2-trifluoromethyl-benzonitrile] | 9.39 | 97 | 3-4 fold | 8.5 to 12.5 | 8.55 | 
2 | O=[N+]([O-])c1ccc(N2CCC[C@@H]2[C@@H](O)C(F)(F)F)cc1C(F)(F)F [LG0893410, R,R-2,2,2-trifluoro-1-[1-(4-nitro-3-trifluoromethyl-phenyl)-pyrrolidin-2-yl]-ethanol] | 8.92 |  |  |  |  | 7.62
3 | O=[N+]([O-])c1ccc(N2CCC[C@@H]2[C@H](O)C(F)(F)F)cc1C(F)(F)F [LG0893411, S, R-2,2,2-trifluoro-1-[1-(4-nitro-3-trifluoromethyl-phenyl)-pyrrolidin-2-yl]-ethanol] | 8.82 |  |  |  |  | 7.46
